Consider 23 compounds from patent US20260062443A1 (ALEXION PHARMACEUTICALS, INC., priority 2022, published 2026).

The target of this assay is T1, Human complement C1s enzyme (Homo sapiens, UniProt P09871).
T1 sequence (P09871 438-688 limits assumed): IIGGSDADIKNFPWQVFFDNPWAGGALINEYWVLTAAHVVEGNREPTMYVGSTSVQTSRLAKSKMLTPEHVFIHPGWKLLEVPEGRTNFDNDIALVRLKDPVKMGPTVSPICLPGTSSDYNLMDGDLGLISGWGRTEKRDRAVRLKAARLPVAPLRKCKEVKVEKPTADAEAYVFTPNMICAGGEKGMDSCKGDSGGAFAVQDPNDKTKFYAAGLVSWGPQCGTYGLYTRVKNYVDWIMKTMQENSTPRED
T1 sequence (P09871 16-437 partner limits assumed): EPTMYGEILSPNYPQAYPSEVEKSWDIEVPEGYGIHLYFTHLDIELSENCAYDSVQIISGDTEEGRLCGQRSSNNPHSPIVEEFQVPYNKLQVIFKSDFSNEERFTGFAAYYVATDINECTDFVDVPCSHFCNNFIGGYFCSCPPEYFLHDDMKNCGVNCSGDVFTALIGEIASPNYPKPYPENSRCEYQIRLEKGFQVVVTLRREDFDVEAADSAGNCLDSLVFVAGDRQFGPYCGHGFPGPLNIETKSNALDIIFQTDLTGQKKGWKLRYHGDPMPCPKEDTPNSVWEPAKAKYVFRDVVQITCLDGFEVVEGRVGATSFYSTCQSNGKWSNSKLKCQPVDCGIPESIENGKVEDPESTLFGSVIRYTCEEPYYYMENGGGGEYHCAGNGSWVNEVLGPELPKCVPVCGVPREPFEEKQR
Description: Human C1s enzyme assay. It is filed as biochemical. The settings on record: human complement C1s enzyme 1.16 nM, substrate Z-L-Lys-SBzl 100 μM, 5 min preincubation; read-out: IC50 (Stars), C1s Inhibiting Activity. In outline: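 IC50 from nonlinear regression of reaction rates versus compound concentration, with rates taken from A405 recorded at 30 s intervals over 30 min after adding 100 μM Z-L-Lys-SBzl plus 100 μM DTNB. Enzyme was human C1s purified from serum, 1.16 nM, given 5 min compound preincubation at room temperature, pH 7.5 Tris/1 M NaCl.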

Regarding `COC[C@@]12C[C@@H]1N(C(=O)CNC(=O)c1ccc3c(c1)Oc1ccccc1S3)[C@H](C(=O)N[C@H](C)c1cc3cnccc3[nH]1)C2` [Compound 191, (1S,3S,5R)-N-((R)-1-(1H-pyrrolo[3,2-c]pyridin-2-yl)ethyl)-5-(methoxymethyl)-2-((phenoxathiine-3-carbonyl)glycyl)-2-azabicyclo[3.1.0]hexane-3-carboxamide], the half-inhibitory concentration (IC50) is less than 100 nM. As for `O=C(NCC(=O)N1C[C@H](OC(F)F)C[C@H]1C(=O)NCc1ccc2[nH]ncc2c1)c1ccc2c(c1)Oc1ccccc1S2` [Compound 192, (2S,4R)-N-((1H-indazol-5-yl)methyl)-4-(difluoromethoxy)-1-((phenoxathiine-3-carbonyl)glycyl)pyrrolidine-2-carboxamide], the IC50 is more than 1000 nM. For the compound `O=C(NCC(=O)N1C[C@H](OC(F)F)C[C@H]1C(=O)NCc1ccc2nc[nH]c2c1)c1ccc2c(c1)Oc1ccccc1S2` [Compound 193, (2S,4R)-N-((1H-benzo[d]imidazol-6-yl)methyl)-4-(difluoromethoxy)-1-((phenoxathiine-3-carbonyl)glycyl)pyrrolidine-2-carboxamide], the 50% inhibitory concentration (IC50) is more than 1000 nM. To `O=C(NCC(=O)N1C[C@H](OC(F)F)C[C@H]1C(=O)NCc1ccc2[nH]ccc2c1)c1ccc2c(c1)Oc1ccccc1S2` [Compound 195, (2S,4R)-N-((1H-indol-5-yl)methyl)-4-(difluoromethoxy)-1-((phenoxathiine-3-carbonyl)glycyl)pyrrolidine-2-carboxamide] belongs more than 1000 nM; to `O=C(NCC(=O)N1C[C@H](OC(F)F)C[C@H]1C(=O)NCc1ccc2cc[nH]c2c1)c1ccc2c(c1)Oc1ccccc1S2` [Compound 196, (2S,4R)-N-((1H-indol-6-yl)methyl)-4-(difluoromethoxy)-1-((phenoxathiine-3-carbonyl)glycyl)pyrrolidine-2-carboxamide], more than 1000 nM. `O=C(NCC(=O)N1C[C@H](OC(F)F)C[C@H]1C(=O)NCc1ccc2c(c1)CCN2)c1ccc2c(c1)Oc1ccccc1S2` [Compound 197, (2S,4R)-4-(difluoromethoxy)-N-(indolin-5-ylmethyl)-1-((phenoxathiine-3-carbonyl)glycyl)pyrrolidine-2-carboxamide]: the IC50 is more than 1000 nM. To `O=C(NCC(=O)N1C[C@H](OC(F)F)C[C@H]1C(=O)NCc1ccc2c(c1)NCC2)c1ccc2c(c1)Oc1ccccc1S2` [Compound 198, (2S,4R)-4-(difluoromethoxy)-N-(indolin-6-ylmethyl)-1-((phenoxathiine-3-carbonyl)glycyl)pyrrolidine-2-carboxamide] belongs more than 1000 nM.

In the case of `O=C(NCC(=O)N1C[C@H](OC(F)F)C[C@H]1C(=O)NCc1ccc2cn[nH]c2c1)c1ccc2c(c1)Oc1ccccc1S2` [Compound 199, (2S,4R)-N-((1H-indazol-6-yl)methyl)-4-(difluoromethoxy)-1-((phenoxathiine-3-carbonyl)glycyl)pyrrolidine-2-carboxamide], the IC50 is more than 1000 nM. With `C[C@@H](NC(=O)[C@@H]1C[C@]2(C)C[C@@H]2N1C(=O)CNC(=O)c1ccc2oc3ccccc3c2c1)c1cc2cnccc2[nH]1` [Compound 200, (1S,3S,5S)-N-((R)-1-(1H-pyrrolo[3,2-c]pyridin-2-yl)ethyl)-2-((dibenzo[b,d]furan-2-carbonyl)glycyl)-5-methyl-2-azabicyclo[3.1.0]hexane-3-carboxamide], the IC50 is less than 100 nM. For the compound `COC[C@@]1(F)C[C@@H](C(=O)NCc2cc3cnccc3[nH]2)N(C(=O)CNC(=O)c2ccc3oc4ccccc4c3c2)C1` [Compound 201, (2S,4R)-N-((1H-pyrrolo[3,2-c]pyridin-2-yl)methyl)-1-((dibenzo[b,d]furan-2-carbonyl)glycyl)-4-fluoro-4-(methoxymethyl)pyrrolidine-2-carboxamide], the IC50 was less than 100 nM. Take `CS(=O)(=O)[C@@H]1C[C@@H](C(=O)NCc2cc3cnccc3[nH]2)N(C(=O)CNC(=O)c2ccc3oc4ccccc4c3c2)C1` [Compound 202, (2S,4R)-N-((1H-pyrrolo[3,2-c]pyridin-2-yl)methyl)-1-((dibenzo[b,d]furan-2-carbonyl)glycyl)-4-(methylsulfonyl)pyrrolidine-2-carboxamide]: the IC50 is less than 100 nM.

Take `C[C@@]12C[C@@H]1N(C(=O)CNC(=O)c1ccc3oc4ccccc4c3c1)[C@H](C(=O)NCc1cc3cnccc3[nH]1)C2` [Compound 203, (1S,3S,5S)-N-((1H-pyrrolo[3,2-c]pyridin-2-yl)methyl)-2-((dibenzo[b,d]furan-2-carbonyl)glycyl)-5-methyl-2-azabicyclo[3.1.0]hexane-3-carboxamide]: the IC50 is less than 100 nM.

`C[C@@H](NC(=O)C1C[C@H](COCCCCCC(=O)O)CN1C(=O)CNC(=O)c1ccc2c(c1)Oc1ccccc1S2)c1cc2cnccc2[nH]1` (stereo partly drawn) [Compound 204, 6-(((3S)-5-(((R)-1-(1H-pyrrolo[3,2-c]pyridin-2-yl)ethyl)carbamoyl)-1-((phenoxathiine-3-carbonyl)glycyl)pyrrolidin-3-yl)methoxy)hexanoic acid]: the half-maximal inhibitory concentration (IC50) was less than 100 nM.

For `C[C@@H](NC(=O)[C@@H]1C[C@@H](OC(F)F)CN1C(=O)CNC(=O)c1ccc(Oc2ccc(F)cc2)cc1)c1cc2cnccc2s1` [Compound 205, (2S,4R)-4-(difluoromethoxy)-1-((4-(4-fluorophenoxy)benzoyl)glycyl)-N-((R)-1-(thieno[3,2-c]pyridin-2-yl)ethyl)pyrrolidine-2-carboxamide], the IC50 fell in the range of 100 to 1000 nM.

Regarding `C[C@@H](NC(=O)[C@@H]1CC2(CN1C(=O)CNC(=O)c1ccc3c(c1)Oc1ccccc1S3)OCCO2)c1cc2cnccc2s1` [Compound 206, (S)-7-((phenoxathiine-3-carbonyl)glycyl)-N-((R)-1-(thieno[3,2-c]pyridin-2-yl)ethyl)-1,4-dioxa-7-azaspiro[4.4]nonane-8-carboxamide], the 50% inhibitory concentration (IC50) was less than 100 nM. As for `C[C@@H](NC(=O)[C@@H]1C[C@@H](OC(F)F)CN1C(=O)CNC(=O)c1ccc2c(c1)-c1ccccc1C2(F)F)c1cc2cnccc2s1` [Compound 207, (2S,4R)-1-((9,9-difluoro-9H-fluorene-3-carbonyl)glycyl)-4-(difluoromethoxy)-N-((R)-1-(thieno[3,2-c]pyridin-2-yl)ethyl)pyrrolidine-2-carboxamide], the IC50 was more than 1000 nM.

Regarding `C[C@@H](NC(=O)[C@@H]1C[C@@H](OC(F)F)CN1C(=O)CNC(=O)c1ccc2c(c1)Oc1ccccc1S2)c1cc2cnccc2s1` [Compound 208, (2S,4R)-4-(difluoromethoxy)-1-((phenoxathiine-3-carbonyl)glycyl)-N-((R)-1-(thieno[3,2-c]pyridin-2-yl)ethyl)pyrrolidine-2-carboxamide], the IC50 was less than 100 nM. For the compound `C[C@@H](NC(=O)[C@@H]1C[C@@H](OC(F)F)CN1C(=O)CNC(=O)c1ccc(Oc2ccccc2)cc1)c1cc2cnccc2s1` [Compound 209, (2S,4R)-4-(difluoromethoxy)-1-((4-phenoxybenzoyl)glycyl)-N-((R)-1-(thieno[3,2-c]pyridin-2-yl)ethyl)pyrrolidine-2-carboxamide], the half-inhibitory concentration (IC50) fell in the range of 100 to 1000 nM. As for `O=C(NCC(=O)N1C[C@H](OC(F)F)C[C@H]1C(=O)NCc1cc2c(s1)CNCC2)c1ccc2c(c1)Oc1ccccc1S2` [Compound 210, (2S,4R)-4-(difluoromethoxy)-1-((phenoxathiine-3-carbonyl)glycyl)-N-((4,5,6,7-tetrahydrothieno[2,3-c]pyridin-2-yl)methyl)pyrrolidine-2-carboxamide], the IC50 was less than 100 nM. With `O=C(NCC(=O)N1CC2(C[C@H]1C(=O)NCc1cc3cnccc3[nH]1)OCCO2)c1ccc2[nH]c3ccccc3c2c1` [Compound 211, (S)-N-((1H-pyrrolo[3,2-c]pyridin-2-yl)methyl)-7-((9H-carbazole-3-carbonyl)glycyl)-1,4-dioxa-7-azaspiro[4.4]nonane-8-carboxamide], the half-inhibitory concentration (IC50) is less than 100 nM. With `O=C(NCC(=O)N1CC2(C[C@H]1C(=O)NCc1cc3cnccc3[nH]1)OCCO2)c1ccc2sc3ccccc3c2c1` [Compound 212, (S)-N-((1H-pyrrolo[3,2-c]pyridin-2-yl)methyl)-7-((dibenzo[b,d]thiophene-2-carbonyl)glycyl)-1,4-dioxa-7-azaspiro[4.4]nonane-8-carboxamide], the concentration for half-maximal inhibition (IC50) was less than 100 nM. Take `O=C(NCC(=O)N1CC2(C[C@H]1C(=O)NCc1cc3cnccc3[nH]1)OCCO2)c1ccc2c(c1)oc1ccccc12` [Compound 213, (S)-N-((1H-pyrrolo[3,2-c]pyridin-2-yl)methyl)-7-((dibenzo[b,d]furan-3-carbonyl)glycyl)-1,4-dioxa-7-azaspiro[4.4]nonane-8-carboxamide]: the IC50 is less than 100 nM.

Take `O=C(NCC(=O)N1CC[C@H](c2ccccc2)[C@H]1C(=O)NCc1cc2cnccc2[nH]1)c1ccc2c(c1)Oc1ccccc1S2` [Compound 214, (2S,3R)-N-((1H-pyrrolo[3,2-c]pyridin-2-yl)methyl)-1-((phenoxathiine-3-carbonyl)glycyl)-3-phenylpyrrolidine-2-carboxamide]: the IC50 is more than 1000 nM.

The term IC50 denotes the concentration that gives 50% inhibition.
